pEC50: −log10 of the molar value. Where a name gives a salt, the structure may show the parent alone.
These molecules were tested against T1, ERR1 (also known as ERR-α or ERR-1) (Homo sapiens, UniProt P11474) (assay: TR-FRET assay: disruption of co-activator peptide binding to ERR1 LBD). Conditions: 6His-tagged ERR1 LBD 6 nM, GST-SRC-2 peptide 6 nM, 25° C., 4-18 hours; average of 3 independent experiments.
T1 construct: the ^6His-tagged-ERR1 LBD
T1 sequence (P11474 193-421 limits assumed): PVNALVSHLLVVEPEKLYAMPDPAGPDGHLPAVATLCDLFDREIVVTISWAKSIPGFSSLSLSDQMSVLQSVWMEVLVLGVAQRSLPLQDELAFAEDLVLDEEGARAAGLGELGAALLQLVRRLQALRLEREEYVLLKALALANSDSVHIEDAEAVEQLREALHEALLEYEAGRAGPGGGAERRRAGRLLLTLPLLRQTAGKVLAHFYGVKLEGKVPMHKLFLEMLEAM
Format: biochemical
In short: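 The 6His-ERR1 LBD and a GST-hSRC2 co-activator peptide were detected by α-GST Eu cryptate and α-6His-XL665 TR-FRET. Buffer was 25 mM Tris pH 8, 2.5 mM Hepes, 20 mM KCl, 1 mM DTT, 0.05 mg/mL BSA, equilibrated 4-18 h at 25° C. Dose-response curves were fitted hyperbolically and averaged over 3 independent experiments.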

| SMILES | pEC50 |
| --- | --- |
| COc1cc(/C=C2\SC(NCCN3CCCCC3)=NC2=O)ccc1Oc1ccc(C#N)cc1C(F)(F)F [Compound 25, 4-{2-Methoxy-4-[4-oxo-2-(2-piperidin-1-yl-ethylamino)-4H-thiazol-5-ylidenemethyl]-phenoxy}-3-trifluoromethyl-benzonitrile] | 7.74 |
| COc1cc(/C=C2\SC(NCCn3cccn3)=NC2=O)ccc1Oc1ccc(C#N)cc1C(F)(F)F [Example 30, 4-{2-Methoxy-4-[4-oxo-2-(2-pyrazol-1-yl-ethylamino)-4H-thiazol-5-ylidenemethyl]-phenoxy}-3-trifluoromethyl-benzonitrile] | 7.33 |
| COc1cc(/C=C2\SC(NCC3CNCCO3)=NC2=O)ccc1Oc1ccc(C#N)cc1C(F)(F)F (stereo not drawn) [Example 80, 4-(2-Methoxy-4-{2-[(morpholin-2-ylmethyl)-amino]-4-oxo-4H-thiazol-5-ylidenemethyl}-phenoxy)-3-trifluoromethyl-benzonitrile] | 7.46 |
| COc1cc(/C=C2\SC(N3CCNC(=O)C3)=NC2=O)ccc1Oc1ccc(C#N)cc1C(F)(F)F [Compound 21, 4-{2-Methoxy-4-[4-oxo-2-(3-oxo-piperazin-1-yl)-4H-thiazol-5-ylidenemethyl]-phenoxy}-3-trifluoromethyl-benzonitrile] | 8.05 |
| COc1cc(/C=C2\SC(N(C)OC)=NC2=O)ccc1Oc1ccc(C#N)cc1C(F)(F)F [Example 75, 4-{2-Methoxy-4-[2-(methoxy-methyl-amino)-4-oxo-4H-thiazol-5-ylidenemethyl]-phenoxy}-3-trifluoromethyl-benzonitrile] | 7.49 |
| COc1cc(/C=C2\SC(NCCN)=NC2=O)ccc1Oc1ccc(C#N)cc1C(F)(F)F [Example 87, 4-{4-[2-(2-Amino-ethylamino)-4-oxo-4H-thiazol-5-ylidenemethyl]-2-methoxy-phenoxy}-3-trifluoromethyl-benzonitrile HCl salt] | 7.66 |
| N#Cc1ccc(Oc2ccc(/C=C3\SC(NC4CC4)=NC3=O)cc2F)c(C(F)(F)F)c1 [Compound 10, 4-[4-(2-Cyclopropylamino-4-oxo-4H-thiazol-5-ylidenemethyl)-2-fluoro-phenoxy]-3-trifluoromethyl-benzonitrile] | 7.28 |
| COc1cc(/C=C2\SC(NCCNC(N)=O)=NC2=O)ccc1Oc1ccc(C#N)cc1C(F)(F)F [Example 74, (2-{5-[4-(4-Cyano-2-trifluoromethyl-phenoxy)-3-methoxy-benzylidene]-4-oxo-4,5-dihydro-thiazol-2-ylamino}-ethyl)-urea] | 7.77 |
| COc1cc(/C=C2\SC(N)=NC2=O)ccc1Oc1ccc(C#N)cc1C(F)(F)F [Compound 1, 4-[4-(2-Amino-4-oxo-4H-thiazol-5-ylidenemethyl)-2-methoxy-phenoxy]-3-trifluoromethyl-benzonitrile] | 7.92 |
| O=C1N=C(NCCCN2CCCC2=O)S/C1=C\c1ccc(Oc2ccc(Cl)cc2C(F)(F)F)c(F)c1 [Example 67, 5-[4-(4-Chloro-2-trifluoromethyl-phenoxy)-3-fluoro-benzylidene]-2-[3-(2-oxo-pyrrolidin-1-yl)-propylamino]-thiazol-4-one] | 8.52 |
| COc1cc(/C=C2\SC(NCCN3CCCC3=O)=NC2=O)ccc1Oc1ccc(C#N)cc1C(F)(F)F [Example 36, 4-(2-Methoxy-4-{4-oxo-2-[2-(2-oxo-pyrrolidin-1-yl)-ethylamino]-4H-thiazol-5-ylidenemethyl}-phenoxy)-3-trifluoromethyl-benzonitrile] | 8.10 |
| N#Cc1ccc(Oc2ccc(/C=C3\SC(N4CC(C(=O)O)C4)=NC3=O)cc2F)c(C(F)(F)F)c1 [Example 116, 1-{5-[4-(4-Cyano-2-trifluoromethyl-phenoxy)-3-fluoro-benzylidene]-4-oxo-4,5-dihydro-thiazol-2-yl}-azetidine-3-carboxylic acid] | 7.47 |
| COc1cc(/C=C2\SC(N(C)CC(O)CO)=NC2=O)ccc1Oc1ccc(Cl)cc1C(F)(F)F (stereo not drawn) [Example 62, 5-[4-(4-Chloro-2-trifluoromethyl-phenoxy)-3-methoxy-benzylidene]-2-[(2,3-dihydroxy-propyl)-methyl-amino]-thiazol-4-one] | 8.52 |
| COc1cc(/C=C2\SC(NCC(O)CN)=NC2=O)ccc1Oc1ccc(C#N)cc1C(F)(F)F (stereo not drawn) [Example 95, 4-{4-[2-(3-Amino-2-hydroxy-propylamino)-4-oxo-4H-thiazol-5-ylidenemethyl]-2-methoxy-phenoxy}-3-trifluoromethyl-benzonitrile] | 7.05 |
| COc1cc(/C=C2\SC(N3CCCC(O)C3)=NC2=O)ccc1Oc1ccc(C(N)=O)cc1C(F)(F)F (stereo not drawn) [Example 114, 4-{4-[2-(3-Hydroxy-piperidin-1-yl)-4-oxo-4H-thiazol-5-ylidenemethyl]-2-methoxy-phenoxy}-3-trifluoromethyl-benzamide] | 6.52 |

Source: patent US8580832B2, “Substituted phenoxy aminothiazolones as estrogen related receptor-α modulators” (Janssen Pharmaceutica N.V., priority 2007, dated 2013)
